Source: a melting point compilation (Tetko et al.)

Structure (SMILES) | melting point [°C]
CC1(C)C(C=Cc2cc(Br)cc([N+](=O)[O-])c2[O-])=[N+](Cc2ccccc2)c2ccccc21 | 208
OCCCc1ccccn1 | 34
Nc1cccc2c(O)nnc(O)c12 | 330
CC(=O)OC1CCCc2c(C)ccc(C)c21 (stereo not given) | 52
O=C1OC(=O)c2ccc(Cl)c3cccc1c23 | 207 to 210
CC(=O)Nc1ccc([N+](=O)[O-])c(F)c1 | 176
O=C(Cl)c1cc2ccccc2s1 | 87
O=c1c(O)c(-c2ccc(O)c(O)c2)oc2cc(O)cc(O)c12 | 316
COc1ccc2c3c1OC1C(O)CCC4C(C2)N(C)CCC341 (stereo not given) | 200
OC[C@H]1CC[C@H](CO)CC1 | 61 to 66
CCCC(C)(O)CCC | -82
CC1(C)CCCC(C)(C)N1 | 28
NC(=S)C1COc2ccccc2O1 (stereo not given) | 180 to 183
NC(=O)c1cccc(C(F)(F)F)c1 | 124
CCOC(=O)c1cnc2ccc(OC(F)(F)F)cc2c1O | 297 to 305
O=C(O)c1ccc(C(=O)O)c([N+](=O)[O-])c1 | 270 to 272
COC(=O)c1scc(C#N)c1-n1cccc1 | 87 to 90
C=CCn1c(=O)oc(=O)c2ccccc21 | 111 to 113
Cc1ccccc1C=Cc1ccccc1C | 83
Cc1nn(C)c(C)c1N=C=O | 36 to 40
Cc1cccc2c1sc1c(C)cccc12 | 147 to 153
N#Cc1cccc(N2CCOCC2)n1 | 133 to 135

Structure (SMILES) | melting point [°C]
CNc1cc(Cl)ccc1[N+](=O)[O-] | 104 to 107
C=CC1CN2CCC1CC2C(O)c1ccnc2ccc(O)cc12 (stereo not given) | 202
Cc1nc(-c2ccccc2)ncc1C(=O)NN | 185 to 187
COC(=O)c1ccc(C(=O)O)nc1 | 187 to 190
O=C(O)C=Cc1ccc(Br)cc1F | 219 to 223
CCCCCNCCCCC | -7.85
CC1(C)OC(=O)C(c2ccccc2)C(=O)O1 | 135 to 140
COc1ccc(Br)cc1C | 68
CC(CP(c1ccccc1)c1ccccc1)P(c1ccccc1)c1ccccc1 (stereo not given) | 68 to 73
CC12CCC(CC(Br)c3ccccc3)(OC1=O)C2(C)C (stereo not given) | 206
CC(C)c1cccc(C(C)C)c1N | -45
c1ccc(N2CCCCC2)cc1 | 4.7
Nc1ccc(CN2CCCC2)cc1 | 46 to 48
COc1ccc([N+](=O)[O-])c(O)c1 | 90 to 94
COc1cc(C=Cc2cc(/C=C/c3ccc(O)c(OC)c3)c([N+](=O)[O-])cc2[N+](=O)[O-])ccc1O | 251
Oc1cc(Cl)c(Cl)c(Cl)c1 | 101
CCOC(=O)C(Br)C(C)Br (stereo not given) | 58.5
CS(=O)(=O)c1ccc(-c2cn3ccccc3n2)cc1 | 242
Nc1ccc(-c2ccc(N)c(Cl)c2)cc1Cl | 132
CCCCNC(=O)NS(=O)(=O)c1ccc(N)cc1 | 144
O=C1CCCN1c1ccc(S(=O)(=O)Cl)cc1 | 107 to 108
CCCCCCCCCCCCC(C)C | -8

Structure (SMILES) | melting point [°C]
OCCCN1CCNCC1 | 50
COCc1nnc(S)s1 | 77 to 79
CCc1ccnc(N)c1 | 67
Cc1ccc(C(N)C(N)c2ccc(C)cc2)cc1 (stereo not given) | 113 to 117
c1ccc(-c2ccc3ccccc3c2)cc1 | 104
NC(=O)OCC(COC(N)=O)c1ccccc1 | 151
CCCCCCCCCCCCCCCCOCCCCCCCCCCCCCCCC | 55
CC(C)(C)c1nnc(NS(=O)(=O)c2ccc(N)cc2)s1 | 222
O=C(Nc1ccccc1)c1cc(Cl)ccc1O | 211
O=c1oc(=O)c2ccccc2c2ccccc12 | 223 to 227
OCCc1c(Cl)cccc1Cl | 59 to 65
CNC(=O)Oc1ccc2c(c1)C1(C)CCN(C)C1N2C (stereo not given) | 106
CC(C)(C)c1ccc(-c2nn[nH]n2)cc1 | 193 to 195
CCc1cccc2c3c([nH]c12)C(CC)(CC(=O)O)OCC3 (stereo not given) | 146
Nc1cccc2c1C(=O)c1cccc(Cl)c1C2=O | 207
CC1c2ccccc2-c2ccccc21 | 46.5
O=C(Cl)OCC(Cl)(Cl)Cl | 1
CC(=O)NC1CC=CCC(NC(C)=O)CC=CC1 (stereo not given) | 267 to 277
CSc1nc2[nH]c(=S)n(Cc3ccccc3)c(=O)c2n1C | 231 to 233
CCOC(=O)c1c[nH]c2c(F)cccc2c1=O | 205 to 210
CCCCC(CC)CN (stereo not given) | -76
